Legend:
[1] = system: MCF7 cells; assay: Cellular proliferation/cytotoxicity assay (Alamar Blue), MCF7; conditions: Homo sapiens, MCF7, 48 h, read-out: Anti-proliferative/cytotoxic activity: IC50 MCF7
Procedure: The anti-proliferative activity of the compounds as described herein, is evaluated using MCF7 and MDA-MB-468 (ATCC HTB-22 and HTB-132) cell lines and the Alamar Blue (Resazurin) cell viability assay (O'Brien et al. Eur J Biochem 267, 5421-5426, 2000). Resazurin is reduced to the fluorescent resorufin by cellular dehydrogenase activity, correlating with viable, proliferating cells. Test compounds are dissolved as 10 mM solutions in DMSO and subsequently diluted. MCF7 or MDA-MB-434 cells were seeded into 96 well flat bottom plates at a density of 10000 cells/well (MCF7) or 5000 cells/well (MDA-MB-468) in a volume of 200 μl/well. 24 hours after seeding, 1 μl each of the compound dilutions are added into each well of the 96 well plates. Each compound dilution is tested as at least as duplicates. Wells containing untreated control cells were filled with 200 μl DMEM containing 0.5% v:v DMSO. The cells are then incubated with the substances for 48 hours at 37° C. in a humidified atmosphere containing 5% carbon dioxide. To determine cell viability, 20 μl of a Resazurin solution (Sigma; 90 mg/l) are added. After 4 hours incubation at 37° C. the fluorescence is measured at an extinction of 544 nm and an emission of 590 nm (Wallac Victor2; Perkin Elmer, USA). For the calculation of the cell viability the emission value from untreated cells is set as 100% viability and the emission rates of treated cells are set in relation to the values of untreated cells. Viabilities are expressed as % values. The corresponding IC50 values of the compounds for cytotoxic activity are determined from the concentration-effect curves by means of non-linear regression. The analysis of the data is performed using a biostatistical program (GraphPad Prism, USA).

[2] = target: T1, GST-ΔPH-Akt1 (Homo sapiens, UniProt P31749); assay: Biochemical ΔPH Akt1 assay (flashplate, 33P incorporation into histone 2B); conditions: 100 nM ATP, histone 2B substrate; read-out: ΔPHAkt1 inhibition: IC50
T1 construct: named GST-deltaPH-Akt1; 107-480aa; cloned in the pAcGl vector; GST (N); made in house; host or cells: SF9 insect cells (baculovirus vector pAcG1), co-expressed with PDK1
T1 sequence (P31749 107-480, stated change not applied): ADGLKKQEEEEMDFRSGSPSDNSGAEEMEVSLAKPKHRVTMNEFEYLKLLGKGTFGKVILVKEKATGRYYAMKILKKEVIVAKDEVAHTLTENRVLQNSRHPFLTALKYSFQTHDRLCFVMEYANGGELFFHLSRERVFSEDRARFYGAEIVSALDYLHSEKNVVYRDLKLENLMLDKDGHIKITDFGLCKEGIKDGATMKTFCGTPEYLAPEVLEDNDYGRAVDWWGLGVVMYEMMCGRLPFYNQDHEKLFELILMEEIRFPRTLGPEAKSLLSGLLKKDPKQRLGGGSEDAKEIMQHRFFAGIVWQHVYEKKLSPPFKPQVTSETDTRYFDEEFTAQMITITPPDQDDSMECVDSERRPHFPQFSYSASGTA
Text: For the biochemical assay ΔPHAkt1 is used devoid of its PH domain as a GST fusion protein (named GST-deltaPH-Akt1; 107-480aa; cloned in the pAcGl vector (BD Biosciences Pharmingen)), co-expressed with PDK1 in SF9 insect cells. The protein is purified using glutathion-affinity chromatography by standard protocols.
In order to study the inhibition of Akt according to the invention, a flashplate-based assay has been developed.
The Akt1 assay is a biochemical assay using Akt1 devoid of its PH domain and co-expressed with PDK1 in insect cells. The GST-ΔPH-Akt1 assay is run in 96 well plates by incubating 100 ng/well GST-ΔPH-Akt1, 100 ng/well histone 2B (Roche, #223514) as substrate, 10 μl of compound of invention (test compounds were dissolved as 10 mM solutions in dimethylsulfoxide (DMSO) and subsequently diluted) and 100 nM ATP (including ^33P-ATP) in 100 μl of reaction buffer ([…], pH7,5; 3 mM MgCl2; 3 mM MnCl2; 3 μM Na-Orthovanadat; 1 mM DTT; 1 μg/ml PEG8000) for 80 minutes at 30° C. The reactions are terminated by adding 100 μl stopping buffer (2% H3PO4 for 5 minutes) and are washed 3 times by using washing buffer (0.9% NaCl). Relying on the incorporation of ^33P into the protein substrate histone 2B, the detection is based on the adhesion of the phosphorylated protein to the surface of scintillator-coated flash plates (NEN, USA; #SMP-200). This phosphorylation is measured by counting the plate for 60 sec. using a plate reader (Wallac Microbeta; Perkin Elmer, USA).

[3] = target: T2, PKA (Homo sapiens, UniProt P17612); assay: Biochemical PKA assay (flashplate); conditions: 100 nM ATP; read-out: PKA inhibition: −log IC50 (converted)
T2 construct: His; purchased PanVera, USA #R3791; host or cells: E. coli
Procedure: For the biochemical PKA assay the catalytic subunit of PKA is expressed in E. coli as a His-tagged human recombinant protein and purified accordingly (PanVera, USA; #R3791).
In order to study the kinase inhibition activity of the compounds according to the invention, a flashplate-based assay has been developed for the serine/threonine kinase, PKA. The assay is run in 96 well plates by incubating 1 ng/well His-PKA (PanVera, USA; #R3791), 0.5 μM/well PKA peptide (#12-394; Upstate, USA) as substrate, 10 μl of compound of invention (test compounds were dissolved as 10 mM solutions in dimethylsulfoxide (DMSO) and subsequently diluted) and 100 nM ATP (including ^33P-ATP) in 100 μl of reaction buffer ([…], pH7,5; 3 mM MgCl2; 3 mM MnCl2; 3 μM Na-Orthovanadat; 1 mM DTT) for 80 minutes at 22° C. The reactions are stopped by adding 100 μl stopping buffer (2% H3PO4 for 5 minutes) and are washed 3 times by using washing buffer (200 μl 1×PBS). Relying on the incorporation of ^33P into the peptide substrate, the detection is based on the adhesion of the phosphorylated peptide to the surface of scintillator-coated Flash plates (Perkin Elmer, USA; #SMP-103). This phosphorylation is measured by counting the plate for 60 sec. using a plate reader (Wallac Microbeta; Perkin Elmer, USA). By using this method the IC50 of the PKA inhibition is determined.

[4] = system: MDA-MB-468 cells; assay: Cellular proliferation/cytotoxicity assay (Alamar Blue), MDA-MB-468; conditions: Homo sapiens, MDA-MB-468, 48 h, read-out: Anti-proliferative/cytotoxic activity: IC50 MDA468

Row | Structure (SMILES) | IC50 [2] | IC50 [3] | IC50 [1] | IC50 [4]
1 | CC(C)(N)c1ccc(C(=O)Nc2ccc(Nc3nc(-c4cccc5c4oc4ccccc45)cc4ccnn34)cc2)cc1 [Example 39, 4-(1-Amino-1-methyl-ethyl)-N-[4-(5-dibenzofuran-4-yl-pyrazolo[1,5-c]pyrimidin-7-ylamino)-phenyl]-benzamide] | ≤ 1.75 µM | 6.31 to 100 µM | ≤ 16.9 µM | ≤ 13.6 µM
2 | NCc1ccc(C(=O)Nc2cccc(Nc3nc(-c4cccc5c4oc4ccccc45)cc4ccnn34)c2)c(F)c1 [Example 27, 4-Aminomethyl-N-[3-(5-dibenzofuran-4-yl-pyrazolo[1,5-c]pyrimidin-7-ylamino)-phenyl]-2-fluoro-benzamide] | ≤ 1.75 µM | > 100 µM | ≤ 16.9 µM | ≤ 13.6 µM
3 | CNCc1ccc(C(=O)Nc2ccc(Nc3nc(-c4cccc5c4oc4ccccc45)cc4ccnn34)cc2)cc1 [Example 33, N-[4-(5-Dibenzofuran-4-yl-pyrazolo[1,5-c]pyrimidin-7-ylamino)-phenyl]-4-methylaminomethyl-benzamide] | ≤ 1.75 µM | > 100 µM | ≤ 16.9 µM | ≤ 13.6 µM
4 | NCc1ccc(C(=O)Nc2ccc(Nc3nc(-c4ccc(-c5ccccc5)cc4)cc4ccnn34)cc2)cc1 [Example 1, 4-Aminomethyl-N-[4-(5-biphenyl-4-yl-pyrazolo[1,5-c]pyrimidin-7-ylamino)-phenyl]-benzamide] | ≤ 1.75 µM | > 100 µM | ≤ 16.9 µM | ≤ 13.6 µM
5 | NCC(C(=O)Nc1cccc(Nc2nc(-c3cccc4c3oc3ccccc34)cc3ccnn23)c1)c1ccc(Cl)c(Cl)c1 (racemic) [Example 41, rac-3-Amino-N-[3-(5-dibenzofuran-4-yl-pyrazolo[1,5-c]pyrimidin-7-ylamino)-phenyl]-2-(3,4-dichloro-phenyl)-propionamide] | ≤ 1.75 µM | > 100 µM | ≤ 16.9 µM | ≤ 13.6 µM
6 | NCCc1ccc(C(=O)Nc2ccc(Nc3nc(-c4cccc5c4oc4ccccc45)cc4ccnn34)cc2)cc1 [Example 23, 4-(2-Amino-ethyl)-N-[4-(5-dibenzofuran-4-yl-pyrazolo[1,5-c]pyrimidin-7-ylamino)-phenyl]-benzamide] | ≤ 1.75 µM | > 100 µM | ≤ 16.9 µM | ≤ 13.6 µM

Continued, in another order:

Row | IC50 [2] | IC50 [3] | Structure (SMILES) | IC50 [1] | IC50 [4]
7 | ≤ 1.75 µM | 6.31 to 100 µM | NCCC(C(=O)Nc1ccc(Nc2nc(-c3cccc4c3oc3ccccc34)cc3ccnn23)cc1)c1ccc(Cl)c(Cl)c1 (racemic) [Example 43, rac-4-Amino-N-[4-(5-dibenzofuran-4-yl-pyrazolo[1,5-c]pyrimidin-7-ylamino)-phenyl]-2-(3,4-dichloro-phenyl)-butyramide] | ≤ 16.9 µM | ≤ 13.6 µM
8 | ≤ 1.75 µM | > 100 µM | O=C(Nc1ccc(Nc2nc(-c3cccc4c3oc3ccccc34)cc3ccnn23)cc1)c1ccc(CNCCO)cc1 [Example 57, N-[4-(5-Dibenzofuran-4-yl-pyrazolo[1,5-c]pyrimidin-7-ylamino)-phenyl]-4-[(2-hydroxy-ethylamino)-methyl]-benzamide] | ≤ 16.9 µM | ≤ 13.6 µM
9 | ≤ 1.75 µM | 6.31 to 100 µM | NCc1ccc(C(=O)Nc2ccc(Nc3nc(-c4cccc5c4oc4ccccc45)cc4ccnn34)cc2)nc1 [Example 65, 5-Aminomethyl-pyridine-2-carboxylic acid [4-(5-dibenzofuran-4-yl-pyrazolo[1,5-c]pyrimidin-7-ylamino)-phenyl]-amide] | ≤ 16.9 µM | ≤ 13.6 µM
10 | ≤ 1.75 µM | 6.31 to 100 µM | NCc1ccc(C(=O)Nc2ccc(Nc3nc(-c4ccc(-c5cccc(F)c5)cc4)cc4ccnn34)cc2)cc1 [Example 70, 4-Aminomethyl-N-{4-[5-(3′-fluoro-biphenyl-4-yl)-pyrazolo[1,5-c]pyrimidin-7-ylamino]-phenyl}-benzamide] | ≤ 16.9 µM | ≤ 13.6 µM

Reference: patent US7745446B2, “Pyrazolo[1,5-c]pyrimidines” (Bayer Schering Pharma Aktiengesellschaft, priority 2004, dated 2010)
